# From patent US20260070887A1 (Shenzhen Zhongge Biological Technology Co., Ltd., priority 2022, published 2026)
# Where two headings read alike, the source gives them in different places.
# Assays:
# KIF18A = KIF18A (Homo sapiens (Human), UniProt Q8NI77); assay: KIF18A ATPase activity under tubulin stimulation (ADP-Glo assay); type: biochemical; settings: KIF18A 30 nM, ATP 150 μM, pig microtubules
# PK study in ICR mice = type: in vivo, mouse; settings: plasma, route and dose not given
# Procedure, shortened: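 Fasted ICR mice (3/group) dosed intravenously or by oral gavage; plasma sampled up to 24 h. Plasma levels measured by LC-MS/MS after protein precipitation. T½, AUC0-t, CL, Vss and F derived by noncompartmental analysis.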
# A2780 cells = assay: A2780 cell anti-proliferation assay; type: cell-based; settings: 6 days, Cell Titer-Glo
# Experimental: A2780 (ECACC) cells were cultured in RPMI-1640 complete medium (Gibco, A1049101) containing 10% fetal bovine serum (Gibco, 10099-141C), 100 U penicillin and 100 μg/mL streptomycin (Gibco, 15140-122). The Promega kit Cell Titer-Glo (Promega: G7572) was used in this method for test.
# A2780 cells were cultured in T75 cell flasks (Corning, 430641) and the cells were placed in a 37° C., 5% CO2 incubator. Cells were passaged when reaching a cell density of 70%-80%, once every five days. To perform the experiment, the test compounds were dissolved in DMSO to prepare a 10 mM stock solution, and the test compounds were added to the 384-well cell test plate (Corning, 3765) at the predetermined concentration (19.5 nM-[…]) using ECHO. A2780 cells were digested and 4000 cells (60 μL medium) were seeded per well in the test plate. The 384-well plate was then centrifuged at 500 rpm for 1 minute, and then placed in a 37° C., 5% CO2 incubator for 6 days of cultivation. Six days later, the cell culture plate was equilibrated for 10 minutes at room temperature, 25 μL of Cell Titer-Glo was added to each well, and the mixture was shaken and mixed well and let stand for 5 minutes. The luminescence values for samples in various wells were read using a microplate reader in Luminescence mode.
# The percentage of inhibition of A2780 cell proliferation by the test compound at each concentration was calculated by comparing with the values of the control group (0.2% DMSO). The IC50 values of the compounds were obtained by concentration-inhibition rate nonlinear regression analysis of the test compounds using GraphPad Prism 9.
# [1] = both sexes, mouse, read-out: AUC
# [2] = both sexes, mouse, read-out: Cmax
# KIF18A, sequence (Q8NI77 whole entry): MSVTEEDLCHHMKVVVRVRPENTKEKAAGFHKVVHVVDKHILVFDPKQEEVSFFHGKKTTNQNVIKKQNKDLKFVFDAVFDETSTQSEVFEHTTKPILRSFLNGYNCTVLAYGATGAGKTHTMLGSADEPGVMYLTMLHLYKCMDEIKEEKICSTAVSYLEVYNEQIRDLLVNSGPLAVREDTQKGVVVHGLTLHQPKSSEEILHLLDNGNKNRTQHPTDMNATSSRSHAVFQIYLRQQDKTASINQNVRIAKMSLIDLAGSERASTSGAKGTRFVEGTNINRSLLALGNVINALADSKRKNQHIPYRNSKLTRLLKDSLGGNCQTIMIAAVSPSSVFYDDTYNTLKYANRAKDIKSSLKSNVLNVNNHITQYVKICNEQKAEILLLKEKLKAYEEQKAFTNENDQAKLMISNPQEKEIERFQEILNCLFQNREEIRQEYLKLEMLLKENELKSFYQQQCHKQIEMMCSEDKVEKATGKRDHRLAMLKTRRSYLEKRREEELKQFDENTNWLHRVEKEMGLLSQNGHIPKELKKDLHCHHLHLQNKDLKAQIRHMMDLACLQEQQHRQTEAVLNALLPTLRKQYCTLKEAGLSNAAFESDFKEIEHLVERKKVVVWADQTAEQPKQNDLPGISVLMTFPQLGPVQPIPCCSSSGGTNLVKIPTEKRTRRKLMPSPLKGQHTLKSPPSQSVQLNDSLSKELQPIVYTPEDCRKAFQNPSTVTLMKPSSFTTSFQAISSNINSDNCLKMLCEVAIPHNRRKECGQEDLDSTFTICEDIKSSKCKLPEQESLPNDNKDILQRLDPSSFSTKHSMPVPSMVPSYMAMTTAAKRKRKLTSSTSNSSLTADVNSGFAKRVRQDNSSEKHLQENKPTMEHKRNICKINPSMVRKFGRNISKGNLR
# KIF18A, sequence (P02550 whole entry partner): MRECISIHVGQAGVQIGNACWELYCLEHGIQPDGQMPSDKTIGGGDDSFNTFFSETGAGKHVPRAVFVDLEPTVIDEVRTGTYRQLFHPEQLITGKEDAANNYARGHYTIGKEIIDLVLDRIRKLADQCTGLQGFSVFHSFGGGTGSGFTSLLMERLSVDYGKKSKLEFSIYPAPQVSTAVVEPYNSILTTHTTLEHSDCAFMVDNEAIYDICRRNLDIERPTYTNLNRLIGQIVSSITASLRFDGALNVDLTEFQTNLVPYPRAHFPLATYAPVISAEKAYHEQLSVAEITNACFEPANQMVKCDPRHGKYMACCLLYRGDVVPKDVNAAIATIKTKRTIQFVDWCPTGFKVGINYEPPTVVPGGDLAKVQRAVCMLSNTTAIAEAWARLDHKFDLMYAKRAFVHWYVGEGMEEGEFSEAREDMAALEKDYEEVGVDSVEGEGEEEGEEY
# KIF18A, sequence (P02554 whole entry partner): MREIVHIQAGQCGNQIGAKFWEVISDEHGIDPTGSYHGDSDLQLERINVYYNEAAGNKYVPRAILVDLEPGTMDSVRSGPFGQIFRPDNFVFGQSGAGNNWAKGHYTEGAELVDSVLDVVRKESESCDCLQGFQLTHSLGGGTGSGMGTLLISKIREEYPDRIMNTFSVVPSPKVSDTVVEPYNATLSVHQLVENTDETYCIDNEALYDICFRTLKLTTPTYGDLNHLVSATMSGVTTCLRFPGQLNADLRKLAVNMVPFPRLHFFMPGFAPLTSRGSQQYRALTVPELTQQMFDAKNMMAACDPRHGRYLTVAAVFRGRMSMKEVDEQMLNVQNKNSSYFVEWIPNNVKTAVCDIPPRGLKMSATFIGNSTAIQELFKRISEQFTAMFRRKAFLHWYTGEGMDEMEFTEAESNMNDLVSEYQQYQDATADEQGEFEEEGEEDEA
SMILES,IC50 (KIF18A) [µM],AUC (PK study in ICR mice) [ng·h/mL],Cmax (PK study in ICR mice) [ng/mL],IC50 (A2780 cells) [µM],AUC (PK study in ICR mice; [1]) [ng·h/mL],Cmax (PK study in ICR mice; [2]) [ng/mL],"IC50 (A2780 cells; Homo sapiens, A2780, 144 h) [µM]"
"COc1ccc(NC(=O)c2ccc(NS(=O)(=O)CCO)cc2N2CCC3(CC2)CC3)c2cc3n(c12)CC(C)(C)OC3 [Example 455, 4-((2-hydroxyethyl)sulfonamido)-N-(6-methoxy-3,3-dimethyl-3,4-dihydro-1H-[1,4]oxazinyl[4,3-a]indol-9-yl)-2-(6-azaspiro[2.5]oct-6-yl)benzamide]",0.05 to 0.5,–,–,–,71000,5590,> 10
"COc1ccc(NC(=O)c2ccc(NS(=O)(=O)CCO)cc2N2CCC(=C(F)F)CC2)c2cc3n(c12)CC(C)(C)OC3 [Example 465, 2-(4-(difluoromethylene)piperidin-1-yl)-4-((2-hydroxyethyl)sulfonamido)-N-(6-methoxy-3,3-dimethyl-3,4-dihydro-1H-[1,4]oxazinyl[4,3-a]indol-9-yl)benzamide]",0.05 to 0.5,72111,5780,> 10,–,–,–

# Second part, led by results:
IC50 (KIF18A) [µM],AUC (PK study in ICR mice) [ng·h/mL],Cmax (PK study in ICR mice) [ng/mL],IC50 (A2780 cells) [µM],SMILES,AUC (PK study in ICR mice; [1]) [ng·h/mL],Cmax (PK study in ICR mice; [2]) [ng/mL],"IC50 (A2780 cells; Homo sapiens, A2780, 144 h) [µM]"
≤ 0.05,–,–,–,"O=C(Nc1cccc2c1cc1n2CCC(F)(F)C1)c1ccc(NS(=O)(=O)CCO)cc1N1CCC(=C(F)F)CC1 [Example 374, N-(8,8-difluoro-6,7,8,9-tetrahydropyridino[1,2-a]indol-1-yl)-2-(4-(difluoromethylene)piperidin-1-yl)-4-((2-hydroxyethyl)sulfonamido)benzamide]",26500,3700,8.5
0.05 to 0.5,48150,5253,7.7,N#Cc1ccc(NC(=O)c2ccc(NS(=O)(=O)CCO)cc2N2CCC(=C(F)F)CC2)c2cc3n(c12)CCC(F)(F)C3 [Example 378],–,–,–
≤ 0.05,36456,4043,5.3,N#Cc1ccc(NC(=O)c2ccc(NS(=O)(=O)CCO)cc2N2CCC3(CC2)CC3)c2cc3n(c12)CCC(F)(F)C3 [Example 379],–,–,–
